Test results: paper PMC12274840 (The Journal of Biological Chemistry, 2025)
Several values for one entry are separate records, joined by “and”; a condition that tells them apart may be missing. Equal values may be shown once. Read-outs that look alike come from different tables or passages of the source.

Experiments:
[1] = tested on: E. coli KA797 cells carrying pUK21 with BlaC WT (Tat); experiment: microbe, parasite or virus in culture; assay type: cell-based; conditions: in combination with 100 μg/ml carbenicillin
[2] = tested on: E. coli KA797 cells carrying pUK21 with CTX-M-14 WT (Tat); experiment: microbe, parasite or virus in culture; assay type: cell-based; conditions: in combination with 100 μg/ml carbenicillin
[3] = tested on: E. coli KA797 cells carrying pUK21 with KPC-2 (Tat); experiment: microbe, parasite or virus in culture; assay type: cell-based; conditions: in combination with 100 μg/ml carbenicillin
[4] = tested on: E. coli KA797 cells carrying pUK21 with NmcA (pelB/Sec); experiment: microbe, parasite or virus in culture; assay type: cell-based; conditions: in combination with 25 μg/ml carbenicillin
[5] = tested on: E. coli KA797 cells carrying pUK21 with TEM-1 WT (Sec); experiment: microbe, parasite or virus in culture; assay type: cell-based; conditions: in combination with 100 μg/ml carbenicillin
[6] = tested on: E. coli KA797 cells carrying pUK21 with BlaC I105R; assay type: cell-based, Escherichia coli; conditions: in combination with 100 μg/ml carbenicillin
[7] = tested on: E. coli KA797 cells carrying pUK21 with BlaC I105G; assay type: cell-based, Escherichia coli; conditions: in combination with 100 μg/ml carbenicillin
[8] = tested on: E. coli KA797 cells carrying pUK21 with CTX-M-14 Y105R; assay type: cell-based, Escherichia coli; conditions: in combination with 100 μg/ml carbenicillin
[9] = tested on: E. coli KA797 cells carrying pUK21 with CTX-M-14 Y105G; assay type: cell-based, Escherichia coli; conditions: in combination with 100 μg/ml carbenicillin
[10] = tested on: E. coli KA797 cells carrying pUK21 with TEM-1 Y105R; assay type: cell-based, Escherichia coli; conditions: in combination with 100 μg/ml carbenicillin
[11] = tested on: E. coli KA797 cells carrying pUK21 with TEM-1 Y105G; assay type: cell-based, Escherichia coli; conditions: in combination with 100 μg/ml carbenicillin
BlaC WT = biological target: T1, BlaC WT (Mycobacterium tuberculosis, UniProt P9WKD3); assay type: biochemical
T1 construct: correspond to residue numbers 41-307 of BlaC (Uniprot entry P9WKD3-1); His tag with TEV cleavage site (N); made in house; host or cells: E. coli BL21 (DE3) pLysS

TEM-1 Y105G = TEM-1 Y105G (Escherichia coli, UniProt P62593, Y103G); experiment: In vitro inhibition of nitrocefin hydrolysis and simulation of inhibition curves, TEM-1 Y105G; assay type: biochemical; conditions: clavulanic acid, simulation Eq 2/8
[12] = tested on: E. coli KA797 cells carrying BlaC position 105 library; assay type: cell-based, Escherichia coli; conditions: for Fi AVG (average fitness): average of replicates
[13] = tested on: E. coli KA797 cells carrying CTX-M-14 position 105 library; assay type: cell-based
TEM-1 WT = TEM-1 WT (Escherichia coli, UniProt P62593); assay type: biochemical; parameters: 24 to 286 of TEM-1 (P62593); His tag with TEV cleavage site (N); made in house; host or cells: E. coli BL21 (DE3) pLysS; conditions: clavulanic acid, TEM-1 WT
[14] = tested on: CC1(C)S[C@@H]2[C@H](NC(=O)C(C(=O)O)c3ccccc3)C(=O)N2[C@H]1C(=O)O; experiment: purified protein, by the assay type; conditions: pH 6.4; 25.0 °C
[15] = tested on: CC1(C)S[C@@H]2[C@H](NC(=O)[C@H](N)c3ccccc3)C(=O)N2[C@H]1C(=O)O; experiment: purified protein, by the assay type; conditions: pH 6.4; 25.0 °C
[16] = tested on: O=C(Cc1cccs1)N[C@@H]1C(=O)N2C(C(=O)O)=C(/C=C/c3ccc([N+](=O)[O-])cc3[N+](=O)[O-])CS[C@H]12; experiment: purified protein, by the assay type; conditions: pH 6.4; 25.0 °C
[17] = tested on: CC1(C)S[C@@H]2[C@H](NC(=O)C(C(=O)O)c3ccccc3)C(=O)N2[C@H]1C(=O)O; experiment: purified protein, by the assay type; conditions: pH 6.4; 25.0 °C; remark: listed apart in the source

T1 sequence (P9WKD3 41-307): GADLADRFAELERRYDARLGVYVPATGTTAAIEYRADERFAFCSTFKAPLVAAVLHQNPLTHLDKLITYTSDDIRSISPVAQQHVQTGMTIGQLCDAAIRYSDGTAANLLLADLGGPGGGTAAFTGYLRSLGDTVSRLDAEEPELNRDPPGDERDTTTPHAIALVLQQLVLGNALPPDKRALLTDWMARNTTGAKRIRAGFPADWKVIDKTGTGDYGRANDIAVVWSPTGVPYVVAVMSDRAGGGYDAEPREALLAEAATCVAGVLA

## O=C(O)[C@H]1/C(=C/CO)O[C@@H]2CC(=O)N21 [clavulanic acid]
[1]
  MIC of inhibitor: 0.5 µg/mL
[2]
  MIC of inhibitor: 1 µg/mL
[3]
  MIC of inhibitor: 1 µg/mL
[4]
  MIC of inhibitor: 2 µg/mL
[5]
  MIC of inhibitor: 2 µg/mL
[6]
  MIC of inhibitor: 4 µg/mL
[7]
  MIC of inhibitor: 1 µg/mL
[8]
  MIC of inhibitor: 1 µg/mL
[9]
  MIC of inhibitor: 1 µg/mL
[10]
  MIC of inhibitor: 2 µg/mL
[11]
  MIC of inhibitor: 32 µg/mL
BlaC WT
  k1: 1e+06 M⁻¹ s⁻¹
  k2: 4.5 and 4.5 10^−2 s^−1
  k3: 1.8
TEM-1 Y105G
  k2: 9.6 10^−2 s^−1
  k3: 3.1 10^−3 s^−1
[12]; AA 105 Ala (BlaC I105A)
  Significance of average fitness: +
[12]; AA 105 Ala (BlaC I105A), relative to WT Ile
  Fi AVG (average fitness): 0.441
[12]; AA 105 Arg (BlaC I105R)
  Significance of average fitness: +
[12]; AA 105 Arg (BlaC I105R), relative to WT Ile
  Fi AVG (average fitness): 0.649
[12]; AA 105 Asn (BlaC I105N), relative to WT Ile
  Fi AVG (average fitness): -0.00565
[12]; AA 105 Asp (BlaC I105D), relative to WT Ile
  Fi AVG (average fitness): -0.195
[12]; AA 105 Cys (BlaC I105C), relative to WT Ile
  Fi AVG (average fitness): 0.048
[12]; AA 105 Gln (BlaC I105Q), relative to WT Ile
  Fi AVG (average fitness): -0.027
[12]; AA 105 Glu (BlaC I105E), relative to WT Ile
  Fi AVG (average fitness): -0.066
[12]; AA 105 Gly (BlaC I105G)
  Significance of average fitness: +
[12]; AA 105 Gly (BlaC I105G), relative to WT Ile
  Fi AVG (average fitness): 0.325
[12]; AA 105 His (BlaC I105H), relative to WT Ile
  Fi AVG (average fitness): 0.091
[12]; AA 105 Ile (BlaC WT, reference)
  Fi AVG (average fitness): 0.000
[12]; AA 105 Leu (BlaC I105L), relative to WT Ile
  Fi AVG (average fitness): 0.152
[12]; AA 105 Lys (BlaC I105K), relative to WT Ile
  Fi AVG (average fitness): 0.212
[12]; AA 105 Met (BlaC I105M), relative to WT Ile
  Fi AVG (average fitness): 0.159
[12]; AA 105 Phe (BlaC I105F)
  Significance of average fitness: +
[12]; AA 105 Phe (BlaC I105F), relative to WT Ile
  Fi AVG (average fitness): 0.271
[12]; AA 105 Pro (BlaC I105P), relative to WT Ile
  Fi AVG (average fitness): 0.200
[12]; AA 105 Ser (BlaC I105S)
  Significance of average fitness: +
[12]; AA 105 Ser (BlaC I105S), relative to WT Ile
  Fi AVG (average fitness): 0.440
[12]; AA 105 Thr (BlaC I105T)
  Significance of average fitness: +
[12]; AA 105 Thr (BlaC I105T), relative to WT Ile
  Fi AVG (average fitness): 0.421
[12]; AA 105 Trp (BlaC I105W), relative to WT Ile
  Fi AVG (average fitness): 0.208
[12]; AA 105 Tyr (BlaC I105Y)
  Significance of average fitness: +
[12]; AA 105 Tyr (BlaC I105Y), relative to WT Ile
  Fi AVG (average fitness): 0.298
[12]; AA 105 Val (BlaC I105V), relative to WT Ile
  Fi AVG (average fitness): 0.071
[12]; absolute fitness of BlaC WT (Ile 105), replicate 1
  WT abs Fi 1: -0.077
[12]; absolute fitness of BlaC WT (Ile 105), replicate 2
  WT abs Fi 2: 0.311
[13]; CTX-M-14 AA 105 Arg
  Significance of average fitness: -
[13]; CTX-M-14 AA 105 Gly
  Significance of average fitness: +
[13]; CTX-M-14 AA 105 Trp
  Significance of average fitness: +
[13]; CTX-M-14 WT (Tyr 105)
  WT abs Fi 1 (absolute fitness of wild type, Replicate 1): -0.544
  WT abs Fi 2 (absolute fitness of wild type, Replicate 2): -0.635
TEM-1 WT; simulation Eq 2/8
  k2: 8 10^−2 s^−1
  k3: 1.8 10^−3 s^−1
TEM-1 WT; simulation Eq 8
  k1: 900000 M⁻¹ s⁻¹

## (Escherichia coli)
[14]
  Km: 20 ± 2 µM
  kcat: 31 ± 2 s⁻¹
  kcat/Km: 1.55e+06 ± 180000 M⁻¹ s⁻¹
[15]
  Km: 76 ± 2 µM
  kcat: 103 ± 1 s⁻¹
  kcat/Km: 1.36e+06 ± 80000 M⁻¹ s⁻¹
[16]
  Km: 79 ± 1 µM
  kcat: 576 ± 5 s⁻¹
  kcat/Km: 7.31e+06 ± 80000 M⁻¹ s⁻¹
[17]
  Km: 10.0 ± 0.7 µM
  kcat: 92 ± 2 s⁻¹
  kcat/Km: 9.15e+06 ± 660000 M⁻¹ s⁻¹
